Drawing on patent US9512107B2, “Therapeutically active compositions and their methods of use” (Agios Pharmaceuticals, Inc., priority 2012, dated 2016), this text covers IC50 for 21 molecules.

Molecules are shown by their SMILES. Where a chain is given by its changes, count along the chain named. Read-outs that look alike come from different tables or passages of the source.

In one experiment the target is T1, IDH2 R172K (Homo sapiens, UniProt P48735, R172K).
T1 sequence (P48735 40-452 R172K): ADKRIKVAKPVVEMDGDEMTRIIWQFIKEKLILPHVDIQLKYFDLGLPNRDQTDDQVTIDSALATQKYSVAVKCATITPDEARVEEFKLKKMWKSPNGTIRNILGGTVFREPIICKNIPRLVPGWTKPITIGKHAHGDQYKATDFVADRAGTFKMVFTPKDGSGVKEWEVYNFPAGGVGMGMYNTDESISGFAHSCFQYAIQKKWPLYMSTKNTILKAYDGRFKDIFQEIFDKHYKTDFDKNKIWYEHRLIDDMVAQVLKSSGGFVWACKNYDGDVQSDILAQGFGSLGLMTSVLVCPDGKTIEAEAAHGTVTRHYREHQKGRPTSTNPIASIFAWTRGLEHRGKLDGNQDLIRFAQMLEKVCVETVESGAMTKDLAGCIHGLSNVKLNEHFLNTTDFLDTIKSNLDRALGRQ
Nature of the experiment: IDH2 R172K enzymatic assay (NADPH cofactor depletion, diaphorase/resazurin readout). In kind it is biochemical. The settings on record: read-out: Enz R172K. The method, boiled down:
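Residual NADPH is read out as resorufin fluorescence after quenching with 36 μg/ml diaphorase and 60 μM resazurin in stop mix. The stop follows a 1 h room-temperature reaction started by a substrate mix of NADPH (50 μM) and α-KG (6.3 mM), with compound preincubated with enzyme for 1 h beforehand.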
On the technique in general: Resazurin is reduced to fluorescent resorufin, in cell work by metabolically active cells.

Another experiment has as its target T2, IDH2 R140Q (Homo sapiens, UniProt P48735, R140Q).
T2 sequence (P48735 40-452 R140Q): T1 sequence (P48735 40-452 R172K) with R101Q, K133R
Nature of the experiment: IDH2 R140Q enzymatic assay (cofactor depletion, similar format). In kind it is biochemical. The settings on record: read-out: Enz R140Q.

For experiment [1], the system named is U87MG pLVX-IDH2 R140Q-neo cells. Nature of the experiment: U87MG pLVX-IDH2 R140Q-neo cell based assay, 2-HG in media by LC-MS at 48 hours. Put shortly:
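2-HG secreted into the medium was measured by LC-MS after 48 h of compound treatment (0.2% DMSO final) of U87MG pLVX-IDH2 R140Q-neo cells in DMEM/10% FBS. The same wells were assayed at 72 h by CellTiter-Glo luminescence for effects on growth.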

Consider `FC(F)(F)c1cc(Nc2nc(NC3CCOC3)nc(-c3cccc(C(F)(F)F)n3)n2)ccn1` (stereo not drawn) [Compound 529, N-(Tetrahydro-furan-3-yl)-N′-(2-trifluoromethyl-pyridin-4-yl)-6-(6-trifluoromethyl-pyridin-2-yl)-[1,3,5]triazine-2,4-diamine], for which the IC50 at IDH2 R172K was less than 0.1 µM; at IDH2 R140Q, 0.1 to 1 µM; in experiment [1] (Homo sapiens, U-87 MG) it was less than 0.1 µM.

On to `CC(C)(CO)CNc1nc(Nc2ccnc(C(F)(F)F)c2)nc(-c2cccc(C(F)(F)F)n2)n1` [Compound 530, 2,2-Dimethyl-3-[4-(6-trifluoromethyl-pyridin-2-yl)-6-(2-trifluoromethyl-pyridin-4-ylamino)-[1,3,5]triazin-2-ylamino]-propan-1-ol], for which the IC50 was 0.1 to 1 µM at IDH2 R172K; 0.1 to 1 µM at IDH2 R140Q; less than 0.1 µM in experiment [1] (Homo sapiens, U-87 MG).

For the molecule `CC1(CNc2nc(Nc3ccnc(C(F)(F)F)c3)nc(-c3cccc(C(F)(F)F)n3)n2)CCCO1` (stereo not drawn) [Compound 531, N-(2-Methyl-tetrahydro-furan-2-ylmethyl)-6-(6-trifluoromethyl-pyridin-2-yl)-N′-(2-trifluoromethyl-pyridin-4-yl)-[1,3,5]triazine-2,4-diamine], the IC50 on IDH2 R172K is less than 0.1 µM; on IDH2 R140Q, 0.1 to 1 µM; in experiment [1] (Homo sapiens, U-87 MG), less than 0.1 µM.

Consider `CC1CC1Nc1nc(Nc2ccnc(C(F)(F)F)c2)nc(-c2cccc(C(F)(F)F)n2)n1` (stereo not drawn) [Compound 532, N-(2-Methyl-cyclopropyl)-6-(6-trifluoromethyl-pyridin-2-yl)-N′-(2-trifluoromethyl-pyridin-4-yl)-[1,3,5]triazine-2,4-diamine], for which the IC50 was less than 0.1 µM on IDH2 R172K; 0.1 to 1 µM on IDH2 R140Q; less than 0.1 µM in experiment [1] (Homo sapiens, U-87 MG).

On to `CC1(Nc2nc(Nc3ccnc(C(F)(F)F)c3)nc(-c3cccc(C(F)(F)F)n3)n2)CC1` [Compound 533, N-(1-Methyl-cyclopropyl)-6-(6-trifluoromethyl-pyridin-2-yl)-N′-(2-trifluoromethyl-pyridin-4-yl)-[1,3,5]triazine-2,4-diamine], for which the IC50 on IDH2 R172K was less than 0.1 µM; at IDH2 R140Q it was 0.1 to 1 µM; in experiment [1] (Homo sapiens, U-87 MG), less than 0.1 µM.

For the molecule `CC(C)Nc1nc(Nc2ccc(F)nc2)nc(-c2nccc(C(F)(F)F)n2)n1` [Compound 535, N-(6-Fluoro-pyridin-3-yl)-N′-isopropyl-6-(4-trifluoromethyl-pyrimidin-2-yl)-[1,3,5]triazine-2,4-diamine], the IC50 was 0.1 to 1 µM at IDH2 R172K; 0.1 to 1 µM on IDH2 R140Q; less than 0.1 µM in experiment [1] (Homo sapiens, U-87 MG).

Turning to `CC(C)Nc1nc(Nc2cncc(C(F)(F)F)c2)nc(-c2nccc(C(F)(F)F)n2)n1` [Compound 536, N-Isopropyl-N′-(5-trifluoromethyl-pyridin-3-yl)-6-(4-trifluoromethyl-pyrimidin-2-yl)-[1,3,5]triazine-2,4-diamine], the IC50 was 0.1 to 1 µM at IDH2 R172K; 1 to 10 µM on IDH2 R140Q; less than 0.1 µM in experiment [1] (Homo sapiens, U-87 MG).

For `CC(C)Nc1nc(Nc2ccnc(F)c2)nc(-c2nccc(C(F)(F)F)n2)n1` [Compound 537, N-(2-Fluoro-pyridin-4-yl)-N′-isopropyl-6-(4-trifluoromethyl-pyrimidin-2-yl)-[1,3,5]triazine-2,4-diamine], the IC50 at IDH2 R172K was less than 0.1 µM; on IDH2 R140Q it was 0.1 to 1 µM; in experiment [1] (Homo sapiens, U-87 MG), less than 0.1 µM.

In the case of `CC(C)Nc1nc(Nc2ccnc(F)c2)nc(-c2nccc(C(F)(F)F)n2)n1` [Compound 538], the IC50 is 0.1 to 1 µM on IDH2 R172K, 1 to 10 µM on IDH2 R140Q and less than 0.1 µM in experiment [1].

`OC1(CNc2nc(Nc3cc(F)cc(F)c3)nc(-c3cccc(C(F)(F)F)n3)n2)CC1` [Compound 541, 1-{[4-(3,5-Difluoro-phenylamino)-6-(6-trifluoromethyl-pyridin-2-yl)-[1,3,5]triazin-2-ylamino]-methyl}-cyclopropanol]: the IC50 at IDH2 R172K is 0.1 to 1 µM; at IDH2 R140Q, 0.1 to 1 µM; in experiment [1] (Homo sapiens, U-87 MG) it was less than 0.1 µM.

As for `CC(C)Nc1nc(Nc2cccc(C(C)(C)O)c2)nc(-c2cccc(C(F)(F)F)n2)n1` [Compound 542, 2-{3-[4-Isopropylamino-6-(6-trifluoromethyl-pyridin-2-yl)-[1,3,5]triazin-2-ylamino]-phenyl}-propan-2-ol], the IC50 on IDH2 R172K was less than 0.1 µM; at IDH2 R140Q it was 0.1 to 1 µM; in experiment [1] (Homo sapiens, U-87 MG), less than 0.1 µM.

Take `Cn1cc(Nc2nc(Nc3ccnc(C(F)(F)F)c3)nc(-c3cccc(C(F)(F)F)n3)n2)cn1` [Compound 543, N-(1-Methyl-1H-pyrazol-4-yl)-6-(6-trifluoromethyl-pyridin-2-yl)-N′-(2-trifluoromethyl-pyridin-4-yl)-[1,3,5]triazine-2,4-diamine]: the IC50 at IDH2 R172K was 0.1 to 1 µM; at IDH2 R140Q, 0.1 to 1 µM; in experiment [1] (Homo sapiens, U-87 MG) it was less than 0.1 µM.

For the molecule `Cn1nccc1Nc1nc(Nc2ccnc(C(F)(F)F)c2)nc(-c2cccc(C(F)(F)F)n2)n1` [Compound 544, N-(2-Methyl-2H-pyrazol-3-yl)-6-(6-trifluoromethyl-pyridin-2-yl)-N′-(2-trifluoromethyl-pyridin-4-yl)-[1,3,5]triazine-2,4-diamine], the IC50 at IDH2 R172K is 0.1 to 1 µM; on IDH2 R140Q it was 0.1 to 1 µM; in experiment [1] (Homo sapiens, U-87 MG), less than 0.1 µM.

On to `FC(F)(F)c1cc(Nc2nc(Nc3cncs3)nc(-c3cccc(C(F)(F)F)n3)n2)ccn1` [Compound 546, N2-(thiazol-5-yl)-6-(6-(trifluoromethyl)pyridin-2-yl)-N4-(2-(trifluoromethyl)pyridin-4-yl)-1,3,5-triazine-2,4-diamine], for which the IC50 at IDH2 R172K is 0.1 to 1 µM; on IDH2 R140Q, 0.1 to 1 µM; in experiment [1] (Homo sapiens, U-87 MG), less than 0.1 µM.

Take `FC(F)(F)c1cc(Nc2nc(NCC3CCOC3)nc(-c3cccc(C(F)(F)F)n3)n2)ccn1` (stereo not drawn) [Compound 547, N-(Tetrahydro-furan-3-ylmethyl)-N′-(2-trifluoromethyl-pyridin-4-yl)-6-(6-trifluoromethyl-pyridin-2-yl)-[1,3,5]triazine-2,4-diamine]: the IC50 at IDH2 R172K is less than 0.1 µM; at IDH2 R140Q, 0.1 to 1 µM; in experiment [1] (Homo sapiens, U-87 MG), less than 0.1 µM.

Regarding `CC(O)C(C)Nc1nc(Nc2ccnc(C(F)(F)F)c2)nc(-c2cccc(C(F)(F)F)n2)n1` (stereo not drawn) [Compound 548, 3-[4-(6-Trifluoromethyl-pyridin-2-yl)-6-(2-trifluoromethyl-pyridin-4-ylamino)-[1,3,5]triazin-2-ylamino]-butan-2-ol], the IC50 on IDH2 R172K was 0.1 to 1 µM; at IDH2 R140Q, 0.1 to 1 µM; in experiment [1] (Homo sapiens, U-87 MG) it was less than 0.1 µM.

For the molecule `CC1(Nc2nc(Nc3ccnc(C(F)(F)F)c3)nc(-c3cccc(C(F)(F)F)n3)n2)COC1` [Compound 549, N-(3-Methyl-oxetan-3-yl)-6-(6-trifluoromethyl-pyridin-2-yl)-N′-(2-trifluoromethyl-pyridin-4-yl)-[1,3,5]triazine-2,4-diamine], the IC50 on IDH2 R172K was less than 0.1 µM; on IDH2 R140Q, 0.1 to 1 µM; in experiment [1] (Homo sapiens, U-87 MG), less than 0.1 µM.

Regarding `CC1(CNc2nc(Nc3ccnc(C(F)(F)F)c3)nc(-c3cccc(C(F)(F)F)n3)n2)COC1` [Compound 550, N-(3-Methyl-oxetan-3-ylmethyl)-6-(6-trifluoromethyl-pyridin-2-yl)-N′-(2-trifluoromethyl-pyridin-4-yl)-[1,3,5]triazine-2,4-diamine], the IC50 was less than 0.1 µM on IDH2 R172K; 0.1 to 1 µM at IDH2 R140Q; less than 0.1 µM in experiment [1] (Homo sapiens, U-87 MG).

For the molecule `CC(C)Nc1nc(Nc2ccnc(C(F)F)c2)nc(-c2cccc(C(F)(F)F)n2)n1` [Compound 551, N-(2-Difluoromethyl-pyridin-4-yl)-N′-isopropyl-6-(6-trifluoromethyl-pyridin-2-yl)-[1,3,5]triazine-2,4-diamine], the IC50 at IDH2 R172K is less than 0.1 µM; on IDH2 R140Q, 0.1 to 1 µM; in experiment [1] (Homo sapiens, U-87 MG), less than 0.1 µM.

Turning to `CC(CO)CNc1nc(Nc2ccnc(C(F)(F)F)c2)nc(-c2cccc(C(F)(F)F)n2)n1` (stereo not drawn) [Compound 552, 2-Methyl-3-[4-(6-trifluoromethyl-pyridin-2-yl)-6-(2-trifluoromethyl-pyridin-4-ylamino)-[1,3,5]triazin-2-ylamino]-propan-1-ol], the IC50 on IDH2 R172K is 0.1 to 1 µM; on IDH2 R140Q, 0.1 to 1 µM; in experiment [1] (Homo sapiens, U-87 MG) it was less than 0.1 µM.

As for `CCCn1cc(Nc2nc(NC(C)C)nc(-c3cccc(C(F)(F)F)n3)n2)cn1` [Compound 555, N-Isopropyl-N′-(1-propyl-1H-pyrazol-4-yl)-6-(6-trifluoromethyl-pyridin-2-yl)-[1,3,5]triazine-2,4-diamine], the IC50 on IDH2 R172K is 1 to 10 µM; at IDH2 R140Q, 0.1 to 1 µM; in experiment [1] (Homo sapiens, U-87 MG), less than 0.1 µM.
